# Test system: Staphylococcus aureus
# Assay: Antimicrobial activity against Staphylococcus aureus after 24 hrs by disc diffusion method; further: test concentration or dose not given here
# Format: functional
# Settings: not given
row,Compound,inhibition zone (IZ)
1,CC1=NC(=S)N(n2c(CCl)nc3ccccc3c2=O)C(=O)C1/N=N/c1ccccc1 (centres undefined),24.5 mm
2,CC1=NC(=S)N(n2c(CCl)nc3ccccc3c2=O)C(=O)C1/N=N/c1cccc(C)c1O (centres undefined),44.5 mm
3,CC1(C)S[C@@H]2[C@H](NC(=O)[C@H](N)c3ccccc3)C(=O)N2[C@H]1C(=O)O [AMPICILLIN],36 mm
4,CC1=NC(=S)N(n2c(CCl)nc3ccccc3c2=O)C(=O)C1/N=N/c1ccc(O)cc1O (centres undefined),30 mm
5,COc1ccc(/N=N/C2C(=O)N(n3c(CCl)nc4ccccc4c3=O)C(=S)N=C2C)cc1O (centres undefined),47.5 mm
6,CC1=NC(=S)N(n2c(CCl)nc3ccccc3c2=O)C(=O)C1/N=N/c1ccc(C)cc1O (centres undefined),39 mm
7,CC1=NC(=S)N(n2c(CCl)nc3ccccc3c2=O)C(=O)C1/N=N/c1ccc(O)c(O)c1 (centres undefined),31.5 mm
8,CC1=NC(=S)N(n2c(CCl)nc3ccccc3c2=O)C(=O)C1/N=N/c1ccc(Cl)cc1O (centres undefined),33 mm
9,CC1=NC(=S)N(n2c(CCl)nc3ccccc3c2=O)C(=O)C1/N=N/c1cccc(Cl)c1O (centres undefined),33.5 mm
10,CC1=NC(=S)N(n2c(CCl)nc3ccccc3c2=O)C(=O)C1/N=N/c1ccc(O)cc1 (centres undefined),27 mm
11,CC1=NC(=S)N(n2c(CCl)nc3ccccc3c2=O)C(=O)C1/N=N/c1ccc(O)c([N+](=O)[O-])c1 (centres undefined),29 mm

# Test system: Radical scavenging activity
# Assay: Antioxidant activity against DPPH free radical assessed as compound able to consume half the initial amount of DPPH free radical after 30 to 60 mins by spectrophotometry
# Format: functional
# Settings: not given
Compound,Activity,IC50
CC1=NC(=S)N(n2c(CCl)nc3ccccc3c2=O)C(=O)C1/N=N/c1ccccc1 (centres undefined),Dose-dependent effect,–
CC1=NC(=S)N(n2c(CCl)nc3ccccc3c2=O)C(=O)C1/N=N/c1cccc(C)c1O (centres undefined),Dose-dependent effect,3.5 µM
CC1=NC(=S)N(n2c(CCl)nc3ccccc3c2=O)C(=O)C1/N=N/c1ccc(O)cc1O (centres undefined),Dose-dependent effect,2.1 µM
COc1ccc(/N=N/C2C(=O)N(n3c(CCl)nc4ccccc4c3=O)C(=S)N=C2C)cc1O (centres undefined),Dose-dependent effect,3 µM
CC1=NC(=S)N(n2c(CCl)nc3ccccc3c2=O)C(=O)C1/N=N/c1ccc(C)cc1O (centres undefined),Dose-dependent effect,5.1 µM
O=C1O[C@H]([C@@H](O)CO)C(O)=C1O [ASCORBIC ACID],–,9.2 µM
CC1=NC(=S)N(n2c(CCl)nc3ccccc3c2=O)C(=O)C1/N=N/c1ccc(O)c(O)c1 (centres undefined),Dose-dependent effect,1.4 µM
CC1=NC(=S)N(n2c(CCl)nc3ccccc3c2=O)C(=O)C1/N=N/c1ccc(Cl)cc1O (centres undefined),Dose-dependent effect,7 µM
CC1=NC(=S)N(n2c(CCl)nc3ccccc3c2=O)C(=O)C1/N=N/c1cccc(Cl)c1O (centres undefined),Dose-dependent effect,8.3 µM
CC1=NC(=S)N(n2c(CCl)nc3ccccc3c2=O)C(=O)C1/N=N/c1ccc(O)cc1 (centres undefined),Dose-dependent effect,5.4 µM
CC1=NC(=S)N(n2c(CCl)nc3ccccc3c2=O)C(=O)C1/N=N/c1ccc(O)c([N+](=O)[O-])c1 (centres undefined),Dose-dependent effect,8.6 µM

# Test system: Radical scavenging activity
# Assay: Antioxidant activity against DPPH free radical assessed as compound able to consume half the initial amount of DPPH free radical by spectrophotometry
# Format: functional
# Settings: TDE = time-dependent effect
row,Compound,Activity
1,CC1=NC(=S)N(n2c(CCl)nc3ccccc3c2=O)C(=O)C1/N=N/c1ccccc1 (centres undefined),tde
2,CC1=NC(=S)N(n2c(CCl)nc3ccccc3c2=O)C(=O)C1/N=N/c1cccc(C)c1O (centres undefined),tde
3,CC1=NC(=S)N(n2c(CCl)nc3ccccc3c2=O)C(=O)C1/N=N/c1ccc(O)cc1O (centres undefined),tde
4,COc1ccc(/N=N/C2C(=O)N(n3c(CCl)nc4ccccc4c3=O)C(=S)N=C2C)cc1O (centres undefined),tde
5,CC1=NC(=S)N(n2c(CCl)nc3ccccc3c2=O)C(=O)C1/N=N/c1ccc(C)cc1O (centres undefined),tde
6,CC1=NC(=S)N(n2c(CCl)nc3ccccc3c2=O)C(=O)C1/N=N/c1ccc(O)c(O)c1 (centres undefined),tde
7,CC1=NC(=S)N(n2c(CCl)nc3ccccc3c2=O)C(=O)C1/N=N/c1ccc(Cl)cc1O (centres undefined),tde
8,CC1=NC(=S)N(n2c(CCl)nc3ccccc3c2=O)C(=O)C1/N=N/c1cccc(Cl)c1O (centres undefined),tde
9,CC1=NC(=S)N(n2c(CCl)nc3ccccc3c2=O)C(=O)C1/N=N/c1ccc(O)cc1 (centres undefined),tde
10,CC1=NC(=S)N(n2c(CCl)nc3ccccc3c2=O)C(=O)C1/N=N/c1ccc(O)c([N+](=O)[O-])c1 (centres undefined),tde

# Test system: Escherichia coli
# Assay: Antimicrobial activity against Escherichia coli after 24 hrs by disc diffusion method; further: test concentration or dose not given here
# Format: functional
# Settings: not given
row,Compound,inhibition zone (IZ)
1,CC1=NC(=S)N(n2c(CCl)nc3ccccc3c2=O)C(=O)C1/N=N/c1ccccc1 (centres undefined),11.5 mm
2,CC1=NC(=S)N(n2c(CCl)nc3ccccc3c2=O)C(=O)C1/N=N/c1cccc(C)c1O (centres undefined),27.5 mm
3,CC1(C)S[C@@H]2[C@H](NC(=O)[C@H](N)c3ccccc3)C(=O)N2[C@H]1C(=O)O [AMPICILLIN],28 mm
4,CC1=NC(=S)N(n2c(CCl)nc3ccccc3c2=O)C(=O)C1/N=N/c1ccc(O)cc1O (centres undefined),15.5 mm
5,COc1ccc(/N=N/C2C(=O)N(n3c(CCl)nc4ccccc4c3=O)C(=S)N=C2C)cc1O (centres undefined),30 mm
6,CC1=NC(=S)N(n2c(CCl)nc3ccccc3c2=O)C(=O)C1/N=N/c1ccc(C)cc1O (centres undefined),25 mm
7,CC1=NC(=S)N(n2c(CCl)nc3ccccc3c2=O)C(=O)C1/N=N/c1ccc(O)c(O)c1 (centres undefined),17.5 mm
8,CC1=NC(=S)N(n2c(CCl)nc3ccccc3c2=O)C(=O)C1/N=N/c1ccc(Cl)cc1O (centres undefined),20.5 mm
9,CC1=NC(=S)N(n2c(CCl)nc3ccccc3c2=O)C(=O)C1/N=N/c1cccc(Cl)c1O (centres undefined),20.9 mm
10,CC1=NC(=S)N(n2c(CCl)nc3ccccc3c2=O)C(=O)C1/N=N/c1ccc(O)cc1 (centres undefined),13.5 mm
11,CC1=NC(=S)N(n2c(CCl)nc3ccccc3c2=O)C(=O)C1/N=N/c1ccc(O)c([N+](=O)[O-])c1 (centres undefined),14 mm

# Test system: Bacillus subtilis
# Assay: Antimicrobial activity against Bacillus subtilis after 24 hrs by disc diffusion method; further: test concentration or dose not given here
# Format: functional
# Settings: not given
row,Compound,inhibition zone (IZ)
1,CC1=NC(=S)N(n2c(CCl)nc3ccccc3c2=O)C(=O)C1/N=N/c1ccccc1 (centres undefined),16.2 mm
2,CC1=NC(=S)N(n2c(CCl)nc3ccccc3c2=O)C(=O)C1/N=N/c1cccc(C)c1O (centres undefined),36.5 mm
3,CC1(C)S[C@@H]2[C@H](NC(=O)[C@H](N)c3ccccc3)C(=O)N2[C@H]1C(=O)O [AMPICILLIN],40 mm
4,CC1=NC(=S)N(n2c(CCl)nc3ccccc3c2=O)C(=O)C1/N=N/c1ccc(O)cc1O (centres undefined),24.5 mm
5,COc1ccc(/N=N/C2C(=O)N(n3c(CCl)nc4ccccc4c3=O)C(=S)N=C2C)cc1O (centres undefined),42.1 mm
6,CC1=NC(=S)N(n2c(CCl)nc3ccccc3c2=O)C(=O)C1/N=N/c1ccc(C)cc1O (centres undefined),33 mm
7,CC1=NC(=S)N(n2c(CCl)nc3ccccc3c2=O)C(=O)C1/N=N/c1ccc(O)c(O)c1 (centres undefined),27 mm
8,CC1=NC(=S)N(n2c(CCl)nc3ccccc3c2=O)C(=O)C1/N=N/c1ccc(Cl)cc1O (centres undefined),29 mm
9,CC1=NC(=S)N(n2c(CCl)nc3ccccc3c2=O)C(=O)C1/N=N/c1cccc(Cl)c1O (centres undefined),31.5 mm
10,CC1=NC(=S)N(n2c(CCl)nc3ccccc3c2=O)C(=O)C1/N=N/c1ccc(O)cc1 (centres undefined),18.5 mm
11,CC1=NC(=S)N(n2c(CCl)nc3ccccc3c2=O)C(=O)C1/N=N/c1ccc(O)c([N+](=O)[O-])c1 (centres undefined),20 mm

# Test system: Pseudomonas aeruginosa
# Assay: Antimicrobial activity against Pseudomonas aeruginosa after 24 hrs by disc diffusion method; further: test concentration or dose not given here
# Format: functional
# Settings: not given
row,Compound,inhibition zone (IZ)
1,CC1=NC(=S)N(n2c(CCl)nc3ccccc3c2=O)C(=O)C1/N=N/c1ccccc1 (centres undefined),7 mm
2,CC1=NC(=S)N(n2c(CCl)nc3ccccc3c2=O)C(=O)C1/N=N/c1cccc(C)c1O (centres undefined),23.5 mm
3,CC1(C)S[C@@H]2[C@H](NC(=O)[C@H](N)c3ccccc3)C(=O)N2[C@H]1C(=O)O [AMPICILLIN],20 mm
4,CC1=NC(=S)N(n2c(CCl)nc3ccccc3c2=O)C(=O)C1/N=N/c1ccc(O)cc1O (centres undefined),13.5 mm
5,COc1ccc(/N=N/C2C(=O)N(n3c(CCl)nc4ccccc4c3=O)C(=S)N=C2C)cc1O (centres undefined),28 mm
6,CC1=NC(=S)N(n2c(CCl)nc3ccccc3c2=O)C(=O)C1/N=N/c1ccc(C)cc1O (centres undefined),22 mm
7,CC1=NC(=S)N(n2c(CCl)nc3ccccc3c2=O)C(=O)C1/N=N/c1ccc(O)c(O)c1 (centres undefined),16 mm
8,CC1=NC(=S)N(n2c(CCl)nc3ccccc3c2=O)C(=O)C1/N=N/c1ccc(Cl)cc1O (centres undefined),18.5 mm
9,CC1=NC(=S)N(n2c(CCl)nc3ccccc3c2=O)C(=O)C1/N=N/c1cccc(Cl)c1O (centres undefined),21.5 mm
10,CC1=NC(=S)N(n2c(CCl)nc3ccccc3c2=O)C(=O)C1/N=N/c1ccc(O)cc1 (centres undefined),10 mm
11,CC1=NC(=S)N(n2c(CCl)nc3ccccc3c2=O)C(=O)C1/N=N/c1ccc(O)c([N+](=O)[O-])c1 (centres undefined),12 mm

# Reference: ChEMBL document CHEMBL1799998, “Exploration of antimicrobial and antioxidant potential of newly synthesized 2,3-disubstituted quinazoline-4(3H)-ones” (Bioorg Med Chem Lett, 2011)
